Results: patent US10576050B2, “Methods and compositions for treatment of cancer” (ONCONOVA THERAPEUTICS, INC., priority 2012, dated 2020)
“And” between values parts separate entries of the source, which are not always exact repeats. Equal values may be shown once.

Legend:
[1] = Dose escalation of oral Rigosertib twice daily in patients with refractory solid tumors; assay type: in vivo, human; conditions: BID continuously, 25 patients
Description: Twenty-five patients with histologically confirmed solid tumors refractory to standard therapy were given escalating doses of oral Rigosertib twice daily. Doses were increased according to a schedule until the appearance of grade 2 or grade 3/4 toxicities. The maximum tolerated dose (MTD) of oral Rigosertib administered twice daily continuously is 560 mg BID. Dysuria was identified as a potential dose-limiting adverse event and a reported toxicity. […] The antitumor activity in this study supported past observations of Rigosertib efficacy in other solid tumor clinical trials. Pharmacokinetic (PK) data reveal plasma levels with oral Rigosertib were above the predicted pharmacodynamically active levels. Final safety and efficacy results, plasma and urinary PK relationships, and mutational analyses from archival tissue are presented

[2] = Phase I/II study of Rigosertib continuous IV infusion in relapsed or refractory AML or transformed MPN; conditions: for concentration at 6 h: human, in vivo, 2400 mg/day, average plasma levels, 2400 mg/day CIV
Description: (§1) Methods: The patients were >18 years of age with relapsed or refractory AML or transformed myeloproliferative neoplasms (MPN). Patients were given Rigosertib by continuous IV infusions over 24 hours with a fixed dose of 2400 mg/day either for 72 hrs or 120 hrs every other week using a standard dose escalation scheme. A blood sample was withdrawn at 6 hrs after the start of infusion during cycle 1 and cycle 2 to assess the plasma concentration of Rigosertib. The study was subsequently amended and, after 2 cycles of IV Rigosertib (each cycle being 2 weeks) patients received Rigosertib orally, 560 mg twice a day continuously for 20 weeks. The objectives of Phase I study were to define maximum tolerated dose (MTD), dose limiting toxicities (DLT), and identify all toxicities and anti-leukemia activity. Phase II primary objective was to determine the clinical efficacy; secondary objectives were to assess time to response or progression, duration of response and overall survival at 6 months.
as §1, with “Patients with” for “Methods: The patients were >18 years of age with”, “neoplasms (MPN)” for “neoplasms (MPN). Patients”, “hours (hrs)” for “hours”, “of phase 1” for “of Phase I”, “(DLT),” for “(DLT), and”, “Phase 2” for “Phase II”

[3] = Phase 1 dose escalation study of oral ON 01910.Na in MDS patients refractory to ESA, lenalidomide and DNA methyltransferase inhibitors
Description: FIG. 1: Safety and efficacy of Rigosertib (ON 01910.Na) was determined in a dose escalation study in MDS patients refractory to ESA, lenalidomide and DNA Methyltransferase inhibitors. ESA was allowed as concomitant medication. The drug dose was escalated based on a defined escalation dose scheme (70 mg, 140 mg, 280 mg, 560 mg, and 700 mg). Three patients were treated with single escalating weekly doses of oral Rigosertib to determine the oral absorption of Rigosertib.
FIG. 3: The oral absorption and tolerability of Rigosertib administered as single weekly escalating doses in a fasting state were determined in 3 patients. All 3 patients received a 70 mg single oral dose and blood samples for pharmacokinetic analyses were obtained. In the absence of drug-related grade ≥2 toxicity, single dosing was escalated weekly in each patient to 140 mg (week 2), 280 mg (week 3), 560 mg (week 4) and 700 mg (week 5).
FIG. 4: This is a waterfall plot of 8 patients broken down by French American British classification (FAB) as either Refractory Anemia with Excess Blasts-1 (RAEB-1) or RAEB-2. […] The dosage level of each patient is also provided, as well as the patient history of treatment with Azacytidine. The bone marrow blast reduction is measures as a function of FAB classification, dosage and prior treatment with hypomethylating agents.
FIG. 10: Transfusion independence. […] Transfusion independence (TI) defined by absence of RBC transfusion for at least 8 consecutive weeks. Erythroid Response (ER) defined by reduction of at least 4 RBC transfusions/8 weeks compared to pretreatment transfusion number in the previous 8 weeks (RBC Tx for Hb<9.0 g/dL).
Each bar represents one patient. 12 individual MDS patients all categorized as low to intermediate-1 risk (International Prognostic Scoring System—IPSS) and transfusion dependent are shown. […] The decrease in transfusion requirement is plotted for each patient. The absolute differences in red blood cell (RBC) units versus pre-treatment needs are provided.
A total of 16 patients are plotted against their percentage reduction in need for red blood cell transfusions after treatment versus their pre-treatment needs.
Safety and efficacy of a novel oral formulation of ON 01910.Na were determined in a dose escalation study in MDS patients refractory to ESA, lenalidomide and DNA Methyltransferase inhibitors.
ESA was allowed as concomitant medication. The drug dose was escalated based on a defined escalation dose scheme (70, 140, 280, 560, and 700 mg). The drug was administered orally twice a day for 14 days of a 21 day cycle.
Rigosertib (ON 01910.Na) was used in five clinical trials for myelodysplastic syndrome (MDS) in both intravenous and oral formulations.

[4] = 8 RAEB-1/RAEB-2 patients, FIG. 4
[5] = individual patients achieving transfusion independence

SMILES: COc1cc(OC)c(/C=C/S(=O)(=O)Cc2ccc(OC)c(NCC(=O)[O-])c2)c(OC)c1.[Na+] [Rigosertib, sodium (E)-2-{2-methoxy-5-[(2′,4′,6′-trimethoxystyrylsulfonyl)methyl]phenylamino}acetate]
- maximum tolerated dose (MTD) [1]: 560 mg
- patients with transient hematologic response with improvement of platelets ([2]; 4 patients): 16%
- absolute reduction of peripheral blasts (best response, stabilization of disease) ([2]; after 2 cycles): > 50%
- patients with stabilization of disease with >50% absolute reduction of peripheral blasts ([2]; after 2 cycles, 2/25 patients): 8%
- patients with peripheral blasts maintained at +/−10% of pretreatment level ([2]; after 2 cycles, 4 patients): 16%
- concentration at 6 h ([2]; week 1, 6 hrs after start of infusion): 9.2 ± 5.05 µM
- concentration at 6 h ([2]; week 3, 6 hrs after start of infusion): 9.81 ± 6.7 µM
- toxicity profile ([2]; main adverse event transient AMS (altered mental status)): acceptable toxicity profile
- DLT dose ([2]; over 24 hrs): 2400 mg
- MTD ([2]; over 24 hrs for 3 days, CIV): 2400 mg
- patients with dose limiting toxicity (DLT) during first 3-week cycle ([3]; 700 mg dose level, dysuria and shortness of breath): One
- patients responding (bone marrow blast reduction) [3, 4]: 6 of 8
- patients with bone marrow complete response (BM CR) [3, 4]: 2
- patients showing decrease in transfusion dependence based on RBC requirement (absolute differences) ([3]; 12 low to intermediate-1 risk transfusion dependent MDS patients, oral, 8 weeks, FIG. 13): 3 of 12
- patients showing decrease in transfusion dependence based on decrease in percentage of RBC requirement ([3]; 16 patients, FIG. 14): 5 of 16
- tolerability of oral formulation ([3]; 70-700 mg orally twice a day, 14 days of a 21 day cycle): well tolerated
- # Units/56 ds Trt ([3]; RBC units per 56 days of treatment, individual patients): 8.0 and 10.5 (2×) and 3.2 and 3.1 and 0.3 (2×) and 4.4 and 11.6 (2×) and 7.1 and 2.0 and 4.3 and 2.9 and 4.9 and 6.4
- % Reduction ([3]; RBC units vs pre-treatment, individual patients): 100% and 74% and −68% and −49% and −87% and −45% and −88% and 44% and −41% and −50% and 5% and −29% and −52% and −18% and 7% and −3%
- # Units during Trt ([3]; RBC units, individual patients, one table row per patient): 2 (4×) and 17 and 10 and 16 (3×) and 13 and 4 (4×) and 21 and 8
- safe and efficacious dose ([3]; bid, oral, 14 days of a 21 day cycle): 560 mg
- TX response ([3]; individual Low-Int-1 risk transfusion dependent MDS patients, 560 or 700 mg bid, one table row per patient): No
- Duration Tx indep [3, 5]: 16 and 47+ (2×) and 8
- Onset Tx indep week [3, 5]: 10 and 7 and 6 and 3
- Cmax as a function of dose ([3]; single weekly escalating oral doses 70-700 mg, fasting, 3 patients): increased linearly
- Red RBC Units ([3]; units/56 days on treatment vs units in 56 days pre-treatment, individual patients): 4.0 and 4.5 and −6.8 and −2.9 and −3.7 and −3.6 and −5.7 and 3.6 and −4.9 and −2.0 and 0.5 and −1.7 and −3.1 and −1.1 and 0.4 and −0.4
